Publication PMC5955599, “The HTLV-1 gp21 fusion peptide inhibits antigen specific T-cell activation in-vitro and in mice” (PLoS Pathogens, 2018)

Legend:
[1] = tested on: MOG35-55–antigen specific T-cells; assay: Cytokine secretion from activated antigen-specific T-cells (ELISA); format: cell-based, mouse (C57Bl/6J); details: peptide at 10μM, APC-activated T-cells, media 24 hours following activation, n = 12
Method: Fig 2 Modulation of Th1/Th2 gene expression and cytokine secretion from activated T-cells by the HTLV FP. MOG35-55–antigen specific T-cells were activated by irradiated MOG35-55 presenting APCs, in the presence of the HTLV FP at 10μM. (A) Total RNA was isolated 24 hours following activation and mRNA expression levels were determined by qRT-PCR. The values of each gene were normalized to Rpl13a as a housekeeping control. The HTLV FP reduces mRNA expression of Th1 specific genes (IFNG, LTA, and STAT4) and elevates mRNA expression of Th2 specific genes (IL4 and IL10). The data is presented as arbitrary units. n≥3. (B) Media was collected 24 hours following activation and secretion of cytokines was measured by ELISA assay. IFN-γ secretion is inhibited, IL4 secretion is elevated and TNFα is not affected by the HTLV FP. n = 12. One-way ANOVA was used for statistical analysis. *P<0.05; **P<0.01;***P<0.001.
Antigen-specific T-cells were plated onto round 96-well plates in medium containing RPMI-1640 supplemented with 2.5% fetal calf serum (FCS), 100 U/ml penicillin, 100 μg/ml streptomycin, 50μM β-mercaptoethanol, and 2mM L-glutamine. […] In addition, the relevant peptide was added. Each treatment was made with quadruplicate. Analysis of IFN-γ, IL-4 and TNFα secretion was performed by ELISA 24 hours after cell activation according to standard protocols from R&D systems.

[2] = tested on: C57BL/6 female mice; assay: MOG35-55-induced experimental autoimmune encephalomyelitis (EAE); format: in vivo, mouse
Method: (A-B) MOG35-55–antigen specific T-cells were activated by irradiated MOG35-55 presenting APCs, in the presence of HTLV FP or HTLV Scr at 10μM. (A) The proliferative responses were assessed by H^3-thymidine incorporation assay, and normalized to the proliferation of non-activated T-cells. The data is presented as mean inhibition of proliferation. n = 12. (B) IFN-γ was measured by ELISA assay. n = 12. (C-D) EAE was induced in C57BL/6 female mice that were treated with a single dose of HTLV FP, HTLV Scr or vehicle. […] (C) Direct clinical measurement of EAE phenotype in a 5-point scale with increased disease symptoms correlating with higher score value. The data is presented as mean EAE clinical score. (D) Mice were weighed the day before EAE induction, and the change (as a percentage) in weight was recorded. The data is presented as mean change from the initial weight. One-way ANOVA was used for statistical analysis. ^a HTLV FP ≠ Vehicle; ^b HTLV FP ≠ Vehicle & HTLV Scr; ^c HTLV FP ≠ HTLV Scr. ^a,b,cP<0.05. (E) Spleenocytes were harvested at 26 DPI and stimulated using MOG35-55. The proliferative responses were assessed by H^3-thymidine incorporation assay and normalized to the proliferation of non-activated T-cells. The data is presented as counts per minute (CPM). n = 7. (F-G) Spleenocytes were harvested at 26 DPI and stimulated using MOG35-55. Media was collected 48 hours following activation and secretion of IFN-γ and IL4 was measured by ELISA assay. […] One-way ANOVA was used for statistical analysis. *P<0.05;**P<0.01;***P<0.001; ns, not significant.
EAE was induced in 9-week-old wild type and homozygous C57BL/6 female mice (Harlan Laboratories Israel/ Weizmann Institute animal facilities) by injecting a peptide comprising residues 35–55 of mouse myelin oligodendrocyte glycoprotein (MOG35–55; PolyPeptide Laboratories, Strasbourg, France). Mice were injected subcutaneously above the lumbar spinal cord with 100 μl of emulsion containing 200 μg/mouse of the encephalitogenic peptide in complete Freund’s adjuvant (BD-Difco) enriched with 250 μg/mouse of heat-inactivated Mycobacterium tuberculosis (BD-Difco) at 0 days post-induction (DPI). The HTLV FP was dissolved in PBS and added to the emulsion (1mg/kg). Pertussis toxin (Enzo Life Sciences) at a dose of 300 ng per mouse was injected intraperitoneally immediately after the encephalitogenic injection, as well as at […]. EAE disease was scored using a five-point grading with 0 for no clinical disease; 1, tail weakness; 2, paraparesis (incomplete paralysis of one or two hindlimbs); 3, paraplegia (complete paralysis of one or two hindlimbs); 4, paraplegia with forelimb weakness or paralysis; 5, moribund or dead animals. The mice were examined daily.
EAE was induced in C57BL/6 female mice that were either treated with a single dose of HTLV FP or vehicle. […] (A) Direct clinical measurement of EAE phenotype in a 5-point scale with increased disease symptoms correlating with higher score value. The data is presented as mean EAE clinical score. (B) Mice were weighed the day before EAE induction, and the change (as a percentage) in weight was recorded. The data is presented as mean change from the initial weight. Student’s t-test was used for statistical analysis. *P<0.05; **P<0.01;***P<0.001. (TIF) Click here for additional data file.

[3] = tested on: human peripheral T lymphocytes; assay: Cytokine secretion from primary human peripheral T-cells (ELISA); format: cell-based; details: peptide at 10μM, CD3 and CD28 antibodies, media 48 hours following activation, n = 12
Method: Fig 4 Primary human T-cell activation is inhibited upon HTLV FP treatment. Human peripheral T lymphocytes were isolated from whole blood and activated using CD3 and CD28 antibodies, in the presence of HTLV FP or HTLV Scr at 10μM. Media was collected 48 hours following activation and secretion of IL2, IFN-γ and IL10 was measured by ELISA assay. […] One-way ANOVA was used for statistical analysis. *P<0.05; ***P<0.001; ns, not significant.
Human peripheral T lymphocytes were isolated from whole blood of healthy adult donors by dextran sedimentation and Ficoll (Sigma) gradient separation followed by depletion of B cells using nylon wool column (Unisorb), to which B cells were adsorbed. Cells were incubated in a complete RPMI growth medium (500 ml RPMI Ca/Mg + heat inactivated FCS (10% final) + 5 ml 200 mM L-Glu (2 mM final) +5 ml […] Na pyruvate (1 mM final) + 5 ml Pen Strep antibiotics) for more than 2 h, and then non-adherent cells were harvested and transferred to a new plate, resulting in ~90% CD3+ T lymphocytes. Cells were then used for in vitro assay, in which […] were plated per well in a 96-well plate and activated using CD3 and CD28 antibodies.
Human peripheral T lymphocytes were isolated from whole blood of healthy donors and were incubated in a complete RPMI growth medium (500 ml RPMI Ca/Mg + heat inactivated FCS (10% final) + 5 ml 200 mM L-Glu (2 mM final) +5 ml […] Na pyruvate (1 mM final) + 5 ml Pen Strep antibiotics). Cells were activated using CD3 and CD28 antibodies, in the presence of relevant peptides at 10μM. Media was collected 48 hours following activation and secretion of IL2 and IFN-γ was determined according to standard protocols from R&D systems.

[4] = tested on: MOG35-55–antigen specific T-cells; assay: In-vitro T-cell proliferative response (H3-thymidine incorporation); format: cell-based, mouse (C57Bl/6J); details: peptide at 10μM, irradiated MOG35-55 presenting APCs, mean inhibition of proliferation, n = 12

Sequence: ASKAASASPVSAGVTGIGVLMLGVVAMGWASLG [HTLV Scr, scrambled HTLV FP peptide, same amino acid composition and length as the HTLV FP]
- IFN-γ secretion [1]: higher potency than the HTLV Scr
- clinical symptoms of a cage of treated mice at DPI 17 ([2]; additional experiment, S5 and S6 Movies): exhibiting clinical EAE symptoms
- EAE clinical signs, additional experiment ([2]; single dose 1mg/kg, HTLV FP, HTLV Scr or vehicle, period 11 to 16 DPI, 5-point scale): ascent between 11 to 16 DPI
- IFN-γ secretion, human T-cells [3]: had no effect on T-cell activation
- IL2 secretion, human T-cells [3]: had no effect on T-cell activation
- IL10 secretion, human T-cells [3]: had no effect on T-cell activation
- inhibition of T-cell proliferation, activation by MOG35-55 presenting APCs [4]: higher potency than the HTLV Scr
